Reference: patent publication US8598179B2, “Pyrazole-carboxamide derivatives as P2Y12 antagonists” (Sanofi, priority 2007, dated 2013)

Test system: human platelet rich plasma (ADP-induced platelet aggregation)
Assay: Inhibition of human platelet aggregation, "Born"-method (single cuvettes)
Type: cell-based
Settings: 0.1 h, aggregation induced by ADP, single use cuvettes, platelet aggregation profiler, 6 minutes at 37° C.
Procedure: Inhibition of Human Platelet Aggregation
Alternatively to a binding assay which measures a compound's ability to bind to the P2Y12 receptor, the effect on cellular function was also determined. This ability of the compound was evaluated in two platelet aggregation assays: in 96-well plates and with the “Born”-method using single cuvettes.
Whole blood was collected from healthy volunteers using 20 ml syringes containing 2 ml of buffered Citrate. The anticoagulated whole blood was transferred into 15 ml polypropylene conical tubes (10 ml per tube). The tubes were centrifuged for 15 minutes at 340×g at RT without using the centrifuge brake. This procedure leads to a pellet of cellular components and a supernatant of platelet rich plasma (PRP). The PRP layer was collected from each tube and pooled for each donor. To avoid carry over of cellular components following centrifugation, approximately 5 ml of PRP was left in the tube. The platelet concentration was determined using a Coulter Counter.
The 15 ml tubes containing the pellet of cellular components were centrifuged again for 10 minutes at 1940×g. This pelleted out most particulate blood constituents remaining, leaving a layer of Platelet Poor Plasma (PPP). The PPP was collected for each donor. The PRP layer, previously set aside, was diluted with PPP to a final concentration of approximately 3×E8 platelets/ml with the PPP.
The human platelet aggregation assay is performed in single use cuvettes using the platelet aggregation profiler (PAP-4 or -8, Bio/Data corporation).
In the assay cuvette 4 μl of test compound at 100× final concentration in DMSO is mixed with 392 μl fresh PRP and incubated for 2 minutes at 37° C. with 1.200 rpm stirring. Following that incubation period, 4 μl of 250 μM ADP is added to the reaction mix. […] After that aggregation is measured over 6 minutes at 37° C. with 1.200 rpm stirring. Results of the assay are expressed as % inhibition, and are calculated using maximum aggregation (Tmax) or area under curve (AUC) of the absorbance over 6 minutes. […]

Structure (SMILES) | IC50 [nM]
CCOC(=O)N1CCN(C(=O)[C@H](CCC(=O)O)NC(=O)c2cc(OCC(=O)C(C)(C)C)n(-c3ccccc3)n2)CC1 [Example 80, 4-((S)-4-Carboxy-2-{[5-(3,3-dimethyl-2-oxo-butoxy)-1-phenyl-1H-pyrazole-3-carbonyl]-amino}-butyryl)-piperazine-1-carboxylic acid ethyl ester] | 2460
CCOC(=O)COc1cc(C(=O)N[C@@H](CCC(=O)O)C(=O)N2CCN(C(=O)OCC)CC2)nn1-c1ccccc1 [Example 5, 4-{(S)-4-Carboxy-2-[(5-ethoxycarbonylmethoxy-1-phenyl-1H-pyrazole-3-carbonyl)-amino]-butyryl}-piperazine-1-carboxylic acid ethyl ester] | 2480
CCOC(=O)N1CCN(C(=O)[C@H](CCC(=O)O)NC(=O)c2cc(OC3(C(=O)OCC)CCC3)n(-c3ccccc3)n2)CC1 [Example 1, 4-((S)-4-Carboxy-2-{[5-(1-ethoxycarbonyl-cyclobutoxy)-1-phenyl-1H-pyrazole-3-carbonyl]-amino}-butyryl)-piperazine-1-carboxylic acid ethyl ester] | 2930
